Results published in patent EP1087941B9, “THIOLESTERS AND USES THEREOF” (THE UNITED STATES OF AMERICA, as represented by THE …, priority 1998, dated 1999).
Read-outs that look alike come from different tables or passages of the source.

Legend:
[1] = molecular target: T1, recombinant HIV-1 reverse transcriptase (Human immunodeficiency virus type 1 group M subtype B, UniProt P03366); assay: Reverse transcriptase assay with rAdT and rCdG template/primer; assay type: biochemical; settings: for IC50: Table 7, high dose test of 100 µM
T1 construct: using recombinant HIV-1 reverse transcriptase; S. Hughes, ABL Basic Research NCI-FCRDC, Frederick MD (supplied, not a catalogue product)
Procedure: The 5-bromovaleroyl thioester, compound 44, and two 5-pyridiniovaleroyl thioesters, compounds 45 and 47, were analyzed in mechanistic and target-based assays. […] Assays for activity against HIV-1 reverse transcriptase rAdT (template/primer) and rCdG (template/primer) using recombinant HIV-1 reverse transcriptase (S. Hughes, ABL Basic Research NCI-FCRDC, Frederick MD) were performed as described by Rice (1997) supra. Substrate cleavage of recombinant HIV-1 protease in the presence of test compounds using an HPLC-based methodology with the artificial substrate Ala-Ser-Glu-Asn-Try- Pro-Ile-Val-amide (Multiple Peptide Systems, San Diego CA) was performed as described by Rice (1997) supra. The ability of recombinant HIV-1 integrase (S. Hughes, ABL Basic Research NCI-FCRDC, Frederick MD) to carry out 3' processing and strand transfer activities in the presence of test compounds was performed as described by Buckheit (1994) AIDS Res. Hum. Retroviruses 10:1497-1506, and Turpin (1998) Antimicrob. Agents Chemother. 42: 487-494.

CEM-SS cells = assay: cells; assay type: cell-based
Text: One exemplary means to determine antiviral activity is with CEM-SS cells and virus (e.g., HIV-1RF) (MOI = 0.01) using the XTT (2,3-bis[2-methoxy- 4-nitro-5-sulfophenyl] -5- [(phenylamino)carbonyl]-2H-tetrazolium hydroxide) cytoprotection assay, as described by Rice (1993) PNAS 90:9721-9724, and Rice (1997) Antimicrob. Agents Chemother. 41:419-426. Briefly, cells are infected with HIV-1RF (or other virus to be tested) in the presence of various dilutions of test compounds (thiolesters and controls). The cultures are incubated for seven days. During this time control cultures without protective compounds (i.e., compounds with anti-viral activity) replicate virus, induce syncytia, and result in about 90% cell death. The cell death is measured by XTT dye reduction. XTT is a soluble tetrazolimn dye that measures mitochondrial energy output, similar to MTT. Positive controls using dextran sulfate (an attachment inhibitor) or 3'-Azido -2'-3'-dideoxythymidine, AZT (a reverse transcriptase inhibitor) are added to each assay. Individual assays are done in duplicate using a sister plate method.
Effective antiviral concentrations providing 50% cytoprotection (EC50), and cellular growth inhibitory concentrations causing 50% cytotoxicity (IC50) are calculated.

virus attachment = assay: Cell-based p24 attachment assay; settings: for IC50: Table 7, high dose test of 100 µM, read-out: Attachment I50
Procedure: The cell-based p24 attachment assay was performed as described in Rice (1995) Science 270:1194-1197. Viral inactivation assays were carried out as described in Rice (1995) Science 270:1194-1197, and Turpin (1997) supra, with minor modifications. Briefly, MAGI-CCR-5 cells were plated (4 x 10^4 cells per well) in flat bottomed 2-cm well plates for 24 h, after which the culture media was removed and compound-treated virus was added. The virus used was obtained by transient transfection of pNL4-3 into HeLa cells yielding the replication competent NL4-3 virus. Virus containing supernatants were treated for 2 h at 37°C after which residual compound was removed by centrifugation (18,000 x g, 1h, 4°C). Virus pellets were resuspended and placed on the MAGI-CCR-5 monolayers and cultured for 48 h. Monolayers were fixed and stained with X-gal solution and blue cells counted.

NCp7 = molecular target: T2, NCp7 (Human immunodeficiency virus type 1 group M subtype B, UniProt P03347); assay: NCp7 binding to packaging-site oligonucleotide, electrophoretic mobility shift assay; assay type: biochemical, HIV-1; settings: for concentration at which NCp7-oligonucleotide complex formation was inhibited: EMSA on nondenaturing polyacrylamide gels; for IC50: Table 9, read-out: Nucleic Acid Binding (I50 µM)
T2 construct: within the nucleocapsid p7 (NCp7) protein portion of the polyprotein
Procedure: Zinc finger reactivity was measured using a Zn specific fluorochrome, TSQ, N-(6-methoxy-8-quinolyl) -p-toluenesulfonamide, assay or a Trp37 zinc finger fluorescence assay. Fluorescent measurements of the Trp37 residue in the C-terminal finger of recombinant HIV-1 NCp7 protein were performed as described by Rice (1995) Science 270:1194-1197; Rice (1997) Antimicrob. Agents Chemother. 41:419-426. Measurement of Zn ejection from both fingers was measured using the Zn-selective fluorchrome probe TSQ (Molecular Probes, Eugene OR) as described by Rice (1996) J. Med. Chem 39:3606-3616. Measurement of the ability of NCp7 to bind to a DNA oligomer, a 44 mer: GGCGACTGGTGAGTACGCCAAAAATTTTGACTAGCGGAGGCTAG (SEQ ID NO:1), analogous to the HIV-1 RNA packaging site was carried out as described by Huang (1998) J. Med. Chem. 41:1371-1381, see also, Rossio (1998) HIV Pathogenesis and Treatment: Keystone Symposium on Molecular and Cellular Biology, Abstract # 4082. Briefly, 50 nM NCp7 was treated with test compounds for 1 hour at RT in […] buffer containing 10% glycerol and 50 mM Tris-HCl (pH 7.5). Labeled oligomer (0.1 picomole, end labeled [^32P]) was added in an equal volume of buffer containing 10% glycerol, 50 mM Tris-HCl (pH 7.5), 400 mM KCl and 40 mM MgCl2. The reaction was continued for 15 min at room temperature, and a total of […] (or 1/4 of the total reaction volume) was separated on nondenaturing 4.5% polyacrylamide gels in 0.5X Tris-Borate electrophoresis buffer. NCp7-oligomer complexes were visualized by autoradiography.
Interaction of zinc finger inhibitors with NCp7 can result in loss of protein structure and their ability to specifically bind oligonucleotides representing the HIV-1ψ packaging site (Huang (1998) supra; Tummino (1997) Antimicrob. Agents Chemother. 41:394-400; South (1993) Protein Sci. 2:3-19; Dannull (1994) EMBO J. 13:1525-1533). The ability of NCp7 to specifically associate with these oligonucleotides after treatment of the protein with a thiolester of the invention was tested. For example, compounds 44, 45 or 47 were very effective at inhibiting Ncp7's ability to associate with target oligonucleotide, as determined using electrophoretic mobility shift assays (EMSA) on nondenaturing polyacrylamide gels. At 1 µM, compound 45 inhibited complex formation. Compounds 44 and 47 inhibited complex formation at 100 µM (see Table 9).

[2] = rAdT template/primer, read-out: Reverse transcriptase rAdT I50
[3] = rCdG template/primer, read-out: Reverse transcriptase rCdG I50
[4] = Homo sapiens, CEM-SS, Table 5, 50% cytotoxicity, read-out: Antiviral Activity IC50%
[5] = Homo sapiens, CEM-SS, Table 6, 50% cytotoxicity, read-out: Antiviral Activity IC50

Row | Compound | inhibition of HIV-1 reverse transcriptase enzyme activity [1] | IC50 [1, 2] | IC50 [1, 3] | IC50 (CEM-SS cells; [4]) | IC50 (CEM-SS cells; [5]) | IC50 (CEM-SS cells; Table 10, 50% cytotoxicity, read-out: Antiviral Activity IC50%) | toxicity at the high test dose (CEM-SS cells; high test dose of 316 µM) | inhibition of virus attachment (virus attachment) | IC50 (virus attachment) | concentration at which NCp7-oligonucleotide complex formation was inhibited (NCp7) | IC50 (NCp7) | IC50 (CEM-SS cells; Homo sapiens, CEM-SS, read-out: Antiviral Activity IC50)
1 | CC(=O)NS(=O)(=O)c1ccc(NC(=O)c2ccccc2SC(=O)CCCC[n+]2ccccc2)cc1 [Compound 45, N-[2-(5-pyridinio-valeroylthio)benzoyl]sulfacetamide bromide] | did not inhibit | > 100 µM | > 100 µM | > 316 µM | > 316 µM | > 316 µM | no toxicity | did not inhibit | > 100 µM | 1 µM | 1 µM | 
2 | CC(=O)NS(=O)(=O)c1ccc(NC(=O)c2ccccc2SC(=O)CCCCBr)cc1 [Compound 44, N-[2-(5-bromovaleroylthio)benzoyl]sulfacetamide] | did not inhibit | > 100 µM | > 100 µM | 184 µM | 184 µM |  |  | did not inhibit | > 100 µM | 100 µM | 100 µM | 
3 | O=C(CCCC[n+]1ccccc1)Sc1ccccc1C(=O)Nc1ccc(S(=O)(=O)c2ccc([N+](=O)[O-])cc2)cc1 [Compound 47] | did not inhibit |  |  |  |  |  |  | did not inhibit | > 100 µM | 100 µM |  | > 316 µM
